Reference: PubChem BioAssay AID248 (DTP/NCI, 2004)
Several values for one entry are separate records, joined by “and”; a condition that tells them apart may be missing. Equal values may be shown once. Inconclusive results and toxic doses are left out. Rule as the data show it: active = T/C of 150% or more; inactive = T/C below 125%.

Tested on: L1210 leukemia ip in BDF1 mice, survival T/C
Experiment: NCI In Vivo Anticancer Drug Screen. Data for tumor model L1210 Leukemia (intraperitoneal) in B6D2F1 (BDF1) mice
Conditions: endpoint: mean survival time, higher = longer survival
In short: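 Mice bearing the transplanted tumor received compound or vehicle. Survival of the treated group was divided by that of the vehicle-treated control group to give the ratio.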

[1] = dose: 100.0 mg/kg/injection, schedule: Q01DX001 (ip), vehicle: saline
[2] = dose: 200.0 mg/kg/injection, schedule: Q01DX001 (ip), vehicle: saline
[3] = dose: 400.0 mg/kg/injection, schedule: Q01DX001 (ip), vehicle: saline
[4] = dose: 100.0 mg/kg/injection, schedule: Q04DX003 (ip), vehicle: saline with Tween-80
[5] = dose: 100.0 mg/kg/injection, schedule: Q01DX009 (ip), vehicle: Klucel (hydroxypropylcellulose) (HPC)
[6] = dose: 100.0 mg/kg/injection, schedule: Q04DX003 (ip), vehicle: Klucel (hydroxypropylcellulose) (HPC)
[7] = dose: 200.0 mg/kg/injection, schedule: Q01DX009 (ip), vehicle: Klucel (hydroxypropylcellulose) (HPC)
[8] = dose: 200.0 mg/kg/injection, schedule: Q04DX003 (ip), vehicle: Klucel (hydroxypropylcellulose) (HPC)
[9] = dose: 400.0 mg/kg/injection, schedule: Q01DX009 (ip), vehicle: Klucel (hydroxypropylcellulose) (HPC)
[10] = dose: 400.0 mg/kg/injection, schedule: Q04DX003 (ip), vehicle: Klucel (hydroxypropylcellulose) (HPC)
[11] = dose: 100.0 mg/kg/injection, schedule: Q01DX001 (ip), vehicle: carboxymethylcellulose (CMC)
[12] = dose: 200.0 mg/kg/injection, schedule: Q01DX001 (ip), vehicle: carboxymethylcellulose (CMC)
[13] = dose: 400.0 mg/kg/injection, schedule: Q01DX001 (ip), vehicle: carboxymethylcellulose (CMC)

Measured: T/C

COc1ccc(C(=O)O)nc1C
inactive: dose: 75.0 mg/kg/injection, schedule: Q01DX001 (ip), vehicle: acetone 98 % of control | dose: 150.0 mg/kg/injection, schedule: Q01DX001 (ip), vehicle: acetone 101 % of control | dose: 300.0 mg/kg/injection, schedule: Q01DX001 (ip), vehicle: acetone 98 % of control

COc1cc2nn(-c3ccccc3N)nc2cc1OC
inactive: dose: 50.0 mg/kg/injection, schedule: Q01DX009 (ip), vehicle: saline with Tween-80 98 % of control | dose: 100.0 mg/kg/injection, schedule: Q01DX009 (ip), vehicle: saline with Tween-80 90 % of control | dose: 200.0 mg/kg/injection, schedule: Q01DX009 (ip), vehicle: saline with Tween-80 102 % of control

C(=C\c1nc2ccccc2[nH]1)/c1nc2ccccc2[nH]1
inactive: dose: 50.0 mg/kg/injection, schedule: Q01DX001 (ip), vehicle: saline 108 % of control | [1] 96 % of control | [2] 96 % of control | [3] 106 % of control

CS(=O)(=O)n1c(C(Cl)c2ccccc2)nc2ccccc21 (stereo unspecified)
inactive: [1] 102 % of control | [2] 104 % of control | [3] 120 % of control

CCN(CC)c1ccc2c(c1)C(O)c1ccccc1-2 (stereo unspecified)
inactive: [4] 94 % of control and 108 % of control | dose: 200.0 mg/kg/injection, schedule: Q04DX003 (ip), vehicle: saline with Tween-80 104 % of control and 105 % of control | dose: 400.0 mg/kg/injection, schedule: Q04DX003 (ip), vehicle: saline with Tween-80 102 % of control and 108 % of control

CN(C)/C=C/C(=O)c1ccccc1[N+](=O)[O-]
inactive: [5] 97 % of control | [6] 100 % of control | [7] 100 % of control | [8] 105 % of control | [9] 103 % of control | [10] 100 % of control

CCCCNC(=O)Nc1ccc(Cl)cc1
inactive: dose: 25.0 mg/kg/injection, schedule: Q01DX001 (ip), vehicle: saline with Tween-80 100 % of control | dose: 50.0 mg/kg/injection, schedule: Q01DX001 (ip), vehicle: saline with Tween-80 88 % of control | dose: 100.0 mg/kg/injection, schedule: Q01DX001 (ip), vehicle: saline with Tween-80 88 % of control | dose: 100.0 mg/kg/injection, schedule: Q04DX002 (ip), vehicle: Klucel (hydroxypropylcellulose) (HPC) 96 % of control | dose: 200.0 mg/kg/injection, schedule: Q04DX002 (ip), vehicle: Klucel (hydroxypropylcellulose) (HPC) 100 % of control | dose: 400.0 mg/kg/injection, schedule: Q04DX002 (ip), vehicle: Klucel (hydroxypropylcellulose) (HPC) 104 % of control

NNc1nnc(Cl)cc1N
inactive: dose: 25.0 mg/kg/injection, schedule: Q04DX003 (ip), vehicle: saline with Tween-80 102 % of control | dose: 50.0 mg/kg/injection, schedule: Q04DX003 (ip), vehicle: saline with Tween-80 104 % of control | [4] 113 % of control

O=C1c2cc([N+](=O)[O-])ccc2-c2cc(Br)c(N=C(NO)C(F)(F)F)cc21
inactive: [11] 103 % of control | [12] 98 % of control | [13] 95 % of control

COC1C(COC(=O)c2ccccc2)OC2OC(C)(C)OC21 (stereo unspecified)
inactive: dose: 50.0 mg/kg/injection, schedule: Q01DX001 (ip), vehicle: carboxymethylcellulose (CMC) 98 % of control | [11] 98 % of control | [12] 93 % of control | [13] 109 % of control

O=N[O-].O=N[O-].[Co].[NH-]CC[N-]CCO.[NH-]CC[N-]CCO
inactive: dose: 25.0 mg/kg/injection, schedule: Q01DX009 (ip), vehicle: water 109 % of control and 122 % of control | dose: 25.0 mg/kg/injection, schedule: Q04DX003 (ip), vehicle: water 99 % of control | dose: 50.0 mg/kg/injection, schedule: Q01DX009 (ip), vehicle: water 103 % of control and 109 % of control | dose: 50.0 mg/kg/injection, schedule: Q04DX003 (ip), vehicle: water 100 % of control | dose: 100.0 mg/kg/injection, schedule: Q01DX009 (ip), vehicle: water 120 % of control and 89 % of control | dose: 100.0 mg/kg/injection, schedule: Q04DX003 (ip), vehicle: water 97 % of control and 100 % of control

CC1(C)C/C(=C\c2ccc(Cl)cc2)C(=O)c2ccccc21
inactive: [5] 97 % of control | [6] 95 % of control | [7] 93 % of control | [8] 92 % of control | [9] 97 % of control | [10] 92 % of control

Brc1cccc[n+]1-c1ccc2cc(-[n+]3ccccc3Br)ccc2c1
inactive: dose: 9.38 mg/kg/injection, schedule: Q01DX001 (ip), vehicle: other 100 % of control
